pIC50: −log10 of the molar value.
Legend:
JAK3 enzyme [1] = biological target: T1, JAK3 enzyme (Homo sapiens, UniProt P52333); test: JAK Caliper Enzyme Assay at 4 μM ATP; format: biochemical
T1 sequence (P52333 1-1124): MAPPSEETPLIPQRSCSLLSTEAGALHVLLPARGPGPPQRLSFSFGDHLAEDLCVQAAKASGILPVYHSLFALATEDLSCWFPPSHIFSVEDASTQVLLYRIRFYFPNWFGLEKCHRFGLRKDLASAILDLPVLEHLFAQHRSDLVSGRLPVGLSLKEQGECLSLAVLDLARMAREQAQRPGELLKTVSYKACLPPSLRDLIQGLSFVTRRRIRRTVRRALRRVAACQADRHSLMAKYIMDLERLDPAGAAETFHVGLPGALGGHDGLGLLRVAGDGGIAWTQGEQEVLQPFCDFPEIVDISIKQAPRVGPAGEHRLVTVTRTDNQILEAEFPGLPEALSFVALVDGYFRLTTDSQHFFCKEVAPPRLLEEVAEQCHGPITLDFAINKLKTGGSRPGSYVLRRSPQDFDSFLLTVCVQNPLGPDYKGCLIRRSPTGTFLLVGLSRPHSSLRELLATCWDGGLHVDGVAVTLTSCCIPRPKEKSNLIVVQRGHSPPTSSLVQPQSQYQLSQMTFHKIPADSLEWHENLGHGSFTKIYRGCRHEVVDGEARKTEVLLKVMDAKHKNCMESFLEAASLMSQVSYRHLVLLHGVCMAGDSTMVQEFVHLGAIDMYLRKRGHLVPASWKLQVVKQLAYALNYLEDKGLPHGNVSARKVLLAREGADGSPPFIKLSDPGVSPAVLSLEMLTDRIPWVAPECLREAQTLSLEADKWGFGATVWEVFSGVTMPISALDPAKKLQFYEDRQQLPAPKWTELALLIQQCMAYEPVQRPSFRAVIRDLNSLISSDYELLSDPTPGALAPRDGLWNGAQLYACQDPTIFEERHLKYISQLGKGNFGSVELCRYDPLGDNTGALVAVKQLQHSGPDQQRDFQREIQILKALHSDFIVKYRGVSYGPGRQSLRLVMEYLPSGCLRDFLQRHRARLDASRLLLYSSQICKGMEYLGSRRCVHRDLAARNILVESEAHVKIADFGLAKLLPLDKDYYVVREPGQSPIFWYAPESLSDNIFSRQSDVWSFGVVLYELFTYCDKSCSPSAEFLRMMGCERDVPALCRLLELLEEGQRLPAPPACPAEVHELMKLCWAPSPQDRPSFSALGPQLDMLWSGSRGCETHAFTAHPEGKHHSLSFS
Experimental: (§1) Test article was solubilized in dimethyl sulfoxide (DMSO) to a stock concentration of 30 mM. An 11-point half log dilution series was created in DMSO with a top concentration of 600 μM. […] Test article and assay controls were added to a 384-well plate. […] Enzyme concentrations and incubation times were optimized for each new enzyme preps and were modified slightly over time to ensure 20%-30% phosphorylation. […] The assay plates were placed on a Caliper Life Science Lab Chip 3000 (LC3000) instrument, and each well was sampled using appropriate separation conditions to measure the unphosphorylated and phosphorylated peptide.

JAK3 enzyme [2] = biological target: T1, JAK3 enzyme; test: JAK Caliper Enzyme Assay at 1 mM ATP; format: biochemical
Experimental: as §1

| SMILES | pIC50 (JAK3 enzyme [1]) | pIC50 (JAK3 enzyme [2]) |
| --- | --- | --- |
| C=CC(=O)N1CCC(N(C)c2cnc3[nH]cc(C(=O)NCC)c3n2)C1 (racemic) [Example 28, Racemic-2-[(1-acryloylpyrrolidin-3-yl)(methyl)amino]-N-ethyl-5H-pyrrolo[2,3-b]pyrazine-7-carboxamide] | 7.86 | 5.94 |
| C=CC(=O)N1CCC(Oc2cnc3[nH]cc(C(C)O)c3n2)CC1 (racemic) [Example 117] | 7.93 | 5.83 |
| C=CC(=O)N1CCN(c2cnc3[nH]cc(C(=O)NC(CO)CCCC)c3n2)CC1(C)C (racemic) [Example 155, Racemic-2-(4-acryloyl-3,3-dimethylpiperazin-1-yl)-N-(1-hydroxyhexan-2-yl)-5H-pyrrolo[2,3-b]pyrazine-7-carboxamide] | 8.31 | 6.14 |
| C=CC(=O)N1CCN(c2cnc3[nH]cc(C(=O)NC4CCOC4)c3n2)CC1(C)C (racemic) [Example 164, Racemic-2-(4-acryloyl-3,3-dimethylpiperazin-1-yl)-N-(tetrahydrofuran-3-yl)-5H-pyrrolo[2,3-b]pyrazine-7-carboxamide] | 8.36 | 6.14 |
| C=CC(=O)N1CCN(c2cnc3[nH]cc(C(=O)NC(CO)c4ccc(F)cc4)c3n2)CC1(C)C (racemic) [Example 165, Racemic-2-(4-acryloyl-3,3-dimethylpiperazin-1-yl)-N-[1-(4-fluorophenyl)-2-hydroxyethyl]-5H-pyrrolo[2,3-b]pyrazine-7-carboxamide] | 7.97 | 6.02 |
| C=CC(=O)N1CCC(Nc2cnc3[nH]cc(C(=O)NCC(C)(C)C)c3n2)CC1C (racemic) [Example 267, Racemic-2-[(1-acryloyl-2-methylpiperidin-4-yl)amino]-N-(2,2-dimethylpropyl)-5H-pyrrolo[2,3-b]pyrazine-7-carboxamide] | 8.30 | 6.10 |
| C=CC(=O)N1CCC(Nc2cnc3[nH]cc(C(=O)N[C@@H]4C[C@H]4C(F)(F)F)c3n2)CC1C (mixture of isomers) [Example 337, Racemic-2-[(1-acryloyl-2-methylpiperidin-4-yl)amino]-N-[(1R,2R)-2-(trifluoromethyl)cyclopropyl]-5H-pyrrolo[2,3-b]pyrazine-7-carboxamide] | 7.84 | 5.73 |
| C=CC(=O)N1CC[C@H](OC)[C@H](Nc2cnc3[nH]cc(C(=O)N[C@H](C)COC)c3n2)C1 (single isomer, unassigned) [Example 6] | 8.00 | 5.88 |
| C=CC(=O)N1CCC[C@@H]1COc1cnc2[nH]cc(C(=O)N[C@@H](C)COC)c2n1 (single isomer, unassigned) [Example 9] | 8.05 | 5.92 |
| C=CC(=O)N1CC[C@@H](COc2cnc3[nH]cc(C(=O)N[C@@H](C)COC)c3n2)C1 (single isomer, unassigned) [Example 12] | 8.28 | 6.12 |
| C=CC(=O)N1CC[C@@H](COc2cnc3[nH]cc(C(=O)N[C@H](C)COC)c3n2)C1 (single isomer, unassigned) [Example 14] | 7.26 | 5.52 |
| C=CC(=O)N1CC[C@H](COc2cnc3[nH]cc(C(=O)N[C@H](C)COC)c3n2)C1 (single isomer, unassigned) [Example 15] | 7.50 | 5.48 |
| C=CC(=O)N1CC[C@@H](CNc2cnc3[nH]cc(C(=O)N[C@H](C)COC)c3n2)C1 (single isomer, unassigned) [Example 20] | 8.27 | 6.03 |
| C=CC(=O)N1CC[C@@H](N(C)c2cnc3[nH]cc(C(=O)NCC)c3n2)C1 (single isomer, unassigned) [Example 29] | – | 5.08 |
| C=CC(=O)N1CC[C@H](N(C)c2cnc3[nH]cc(C(=O)NCC)c3n2)C1 (single isomer, unassigned) [Example 30] | 8.16 | 6.06 |
| C=CC(=O)N1C[C@H](Nc2ncnc3[nH]ccc23)CC[C@@H]1CNC(C)=O (single isomer, unassigned) [Example 89] | 7.12 | 5.12 |
| C=CC(=O)N1C[C@H](Nc2ncnc3[nH]ccc23)CC[C@@H]1COC (single isomer, unassigned) [Example 92] | 7.68 | 5.61 |
| C=CC(=O)N1C[C@@H](Nc2ncnc3[nH]ccc23)CC[C@H]1COC (single isomer, unassigned) [Example 93] | 6.15 | < 5.50 |
| C=CC(=O)N1C[C@@H](Nc2ncnc3[nH]ccc23)CC[C@H]1COC (single isomer, unassigned) [Example 96] | 6.36 | < 5.00 |

These reach a higher pIC50 (JAK3 enzyme [2]). Values come first.

| pIC50 (JAK3 enzyme [1]) | pIC50 (JAK3 enzyme [2]) | SMILES |
| --- | --- | --- |
| 8.56 | 6.20 | C=CC(=O)N1CCC(COc2cnc3[nH]cc(C(=O)N[C@@H](C)COC)c3n2)C1 (mixture of isomers) [Example 10, Racemic-2-[(1-acryloylpyrrolidin-3-yl)methoxyl]-N-[(2S)-1-methoxypropan-2-yl]-5H-pyrrolo[2,3-b]pyrazine-7-carboxamide] |
| 8.89 | 6.87 | C=CC(=O)N1CCC(Nc2cnc3[nH]cc(C(=O)NCCC(F)(F)F)c3n2)CC1C (racemic) [Example 22, Cis-racemic 2-{[1-acryloyl-2-methylpiperidin-4-yl]amino}-N-(3,3,3-trifluoropropyl)-5H-pyrrolo[2,3-b]pyrazine-7-carboxamide] |
| 8.24 | 6.20 | C=CC(=O)N1CCN(c2cnc3[nH]cc(C(=O)NC(CO)c4cccc(F)c4)c3n2)CC1(C)C (racemic) [Example 136, Racemic-2-(4-acryloyl-3,3-dimethylpiperazin-1-yl)-N-[1-(3-fluorophenyl)-2-hydroxyethyl]-5H-pyrrolo[2,3-b]pyrazine-7-carboxamide] |
| 8.48 | 6.37 | C=CC(=O)N1CCN(c2cnc3[nH]cc(C(=O)NC4COCc5ccccc54)c3n2)CC1(C)C (racemic) [Example 144, Racemic-2-(4-acryloyl-3,3-dimethylpiperazin-1-yl)-N-(3,4-dihydro-1H-isochromen-4-yl)-5H-pyrrolo[2,3-b]pyrazine-7-carboxamide] |
| 8.33 | 6.23 | C=CC(=O)N1CCN(c2cnc3[nH]cc(C(=O)NC(CO)c4ccccc4F)c3n2)CC1(C)C (racemic) [Example 154, Racemic-2-(4-acryloyl-3,3-dimethylpiperazin-1-yl)-N-[1-(2-fluorophenyl)-2-hydroxyethyl]-5H-pyrrolo[2,3-b]pyrazine-7-carboxamide] |
| 8.44 | 6.39 | C=CC(=O)N1CCC(Oc2cnc3[nH]cc(C(=O)NCC4(O)CCC(C)C4)c3n2)CC1 (racemic) [Example 201, Racemic-2-[(1-acryloylpiperidin-4-yl)oxy]-N-[(1-hydroxy-3-methylcyclopentyl)methyl]-5H-pyrrolo[2,3-b]pyrazine-7-carboxamide] |
| 8.45 | 6.28 | C=CC(=O)N1CCC(Oc2cnc3[nH]cc(C(=O)NCC4(O)CCCC[C@@H]4F)c3n2)CC1 (mixture of isomers) [Example 224, Racemic-2-[(1-acryloylpiperidin-4-yl)oxy]-N-{[(2S)-2-fluoro-1-hydroxycyclohexyl]methyl}-5H-pyrrolo[2,3-b]pyrazine-7-carboxamide] |
| 8.67 | 6.37 | C=CC(=O)N1CCC(Oc2cnc3[nH]cc(C(=O)NCC4(O)CC[C@@H](C)C4)c3n2)CC1 (mixture of isomers) [Example 226] |
| 9.39 | 7.34 | C=CC(=O)N1CC[C@@H](OC)[C@@H](Nc2cnc3[nH]cc(C(=O)N[C@H](C)COC)c3n2)C1 (single isomer, unassigned) [Example 5] |
| 8.33 | 6.20 | C=CC(=O)N1CC[C@H](CNc2cnc3[nH]cc(C(=O)N[C@H](C)COC)c3n2)C1 (single isomer, unassigned) [Example 21] |
| 8.45 | 6.19 | C=CC(=O)N1CC[C@@H](Nc2cnc3[nH]cc(C(=O)NCCC(F)(F)F)c3n2)C[C@H]1C (single isomer, unassigned) [Example 23] |
| 8.17 | 6.21 | C=CC(=O)N1CCCC(Nc2cnc3[nH]cc(C(=O)NCC)c3n2)C1 (single isomer, unassigned) [Example 35] |

Source: US10703756B2, “Pyrrolo[2,3-D]pyrimidinyl, pyrrolo[2,3-B]pyrazinyl, pyrrolo[2,3-B]pyridinyl acrylamides and epoxides thereof” (Pfizer Inc., priority 2015, dated 2020)
